Values of other authors as cited in patent US11766428B2 (TAVANTA THERAPEUTICS HUNGARY INCORPORATED, priority 2018, dated 2023).

Assays:
[1] = not given; remark: listed apart in the source

Row | SMILES | solubility in ethanol | solubility in water | circulating drug bound to plasma proteins ([1]; ex vivo, hypertensive patients) | influence of renal impairment on pharmacokinetics ([1]; human, in vivo) | parent compound excreted in the urine ([1]; human, in vivo) [%] | therapeutic plasma level ([1]; human, in vivo) [ng/mL] | effect of food on bioavailability ([1]; oral)
1 | CCOC(=O)C1=C(COCCN)NC(C)=C(C(=O)OC)C1c1ccccc1Cl (racemic) [Amlodipine besylate, 3-ethyl-5-methyl (±)-2-[(2-aminoethoxy)methyl]-4-(2-chlorophenyl)-1,4-dihydro-6-methyl-3,5-pyridinedicarboxylate, monobenzenesulphonate] | sparingly soluble | slightly soluble |  |  |  |  | 
2 | CCOC(=O)C1=C(COCCN)NC(C)=C(C(=O)OC)C1c1ccccc1Cl (stereo not shown) [amlodipine] |  |  | approximately 93% | not significantly influenced | 10 | 3 to 10 | not altered by the presence of food
